Like-named read-outs stand apart in the source and are kept apart here.
Columns and labels:
[1] = Beagle feeding experiment: pharmacokinetic parameters and relative bioavailability; type: in vivo; settings: gastric gavage 20 mg/kg, average
Method: Sample 1 and Sample 2 and Sample 3 obtained by Example 1, Example 2, Example 3 are used for beagle feeding experiment respectively, and the reduced coenzyme Q10 concentration in blood of feed beagle is determined, a basic pharmacokinetic parameters and relative bioavailability is calculated.
4 beagles, half male and half female, 9-12 kg weight, provided by Shanghai Institute of Medicine Center for experimental animals, laboratory animals use license: SYXK (Shanghai), 2010-0049. A cross double cycle test is made. Gastric gavage is respectively for Sample 1, 2, 3, to fill stomach in a dose of 20 mg/kg, a delivery volume of 2 ml/kg. Samples with a suspension of soybean oil mixture for medicine (filling water 20 ml after feeding), normally feeding and drinking before testing, feeding feed containing meat on morning of the same day of feeding the medicine, to fill the stomach after 30 min. Two cycle tests are interval for a week.
Calculate the Pharmacokinetic Parameters of Compounds by WinNonlin 5.3 Software.
Peak-reaching time Tmax and peak-reaching concentration Cmax use measured values. Drug concentration area under time curve AUC0-t value is calculated by the trapezoidal method, AUC0-∞ is calculated by the formula AUC0-∞=AUC0-t+Ct/ke. Ct is a concentration measured by the last time point, ke is an eliminate rate constant, with half logarithmic mapping method, calculation by eliminating the concentration of the phase; Plasma elimination half-life t1/2=0.693/ke. Relative bioavailability F=(AUC0-t, Sample 2 or 3/AUC0-t, Sample 1)×100%. The main pharmacokinetic parameters after Beagle lavage for 20 mg/kg sample.

[2] = Stability experiment: retention rate of reduced coenzyme Q10 on storage; type: physicochemical; settings: stored under shading or nitrogen at 18° C.
Method: Determining the proportion of reduced coenzyme Q10 in reduced coenzyme Q10 powder or crystals by the HPLC method. Determination conditions are as follows:
Instruments: Agilient 1210
Mobile phase: ethanol/methanol=4/3(V/V)
Detection wavelength: 210 nm
Sample 1 and Sample 2 and Sample 3 obtained by Example 1, Example 2, Example 3 are respectively stored under shading or nitrogen for two months at 18° C. The retention rate of reduced coenzyme Q10 is respectively determined within 1 month and 2 months.

[3] = both sexes, dog, blood, po, 20 mg/kg, suspension in soybean oil

SMILES: COc1c(O)c(C)c(C/C=C(\C)CC/C=C(\C)CC/C=C(\C)CC/C=C(\C)CC/C=C(\C)CC/C=C(\C)CC/C=C(\C)CC/C=C(\C)CC/C=C(\C)CCC=C(C)C)c(O)c1OC [Sample 1, reduced coenzyme Q10]
- AUC0-t ([1]; suspension in soybean oil): 3640 ng·h/mL
- AUC0-∞ ([1]; suspension in soybean oil): 2865 ng·h/mL
- Cmax ([1]; suspension in soybean oil): 303 ng/mL
- MRT ([1]; suspension in soybean oil): 10.9 h
- Tmax ([1]; suspension in soybean oil): 7.5 h
- t1/2 ([1]; suspension in soybean oil): 6.11 h
- The retention rate of reduced coenzyme Q10 within 1 month [2]: 98.4%
- The retention rate of reduced coenzyme Q10 within 2 months [2]: 95.5%
- The retention rate of reduced coenzyme Q10 within 2 months ([2]; listed as reduced coenzyme Q10 powder obtained by the method): 95.5%

SMILES: COc1c(O)c(C)c(C/C=C(\C)CC/C=C(\C)CC/C=C(\C)CC/C=C(\C)CC/C=C(\C)CC/C=C(\C)CC/C=C(\C)CC/C=C(\C)CC/C=C(\C)CCC=C(C)C)c(O)c1OC [Sample 2, reduced coenzyme Q10]
- AUC0-t ([1]; suspension in soybean oil): 2359 ng·h/mL
- AUC0-∞ ([1]; suspension in soybean oil): 2405 ng·h/mL
- Cmax ([1]; suspension in soybean oil): 261 ng/mL
- MRT ([1]; suspension in soybean oil): 7.77 h
- Tmax ([1]; suspension in soybean oil): 4.5 h
- t1/2 ([1]; suspension in soybean oil): 3.94 h
- The retention rate of reduced coenzyme Q10 within 1 month [2]: 75.4%
- The retention rate of reduced coenzyme Q10 within 2 months [2]: 66.3%
- The retention rate of reduced coenzyme Q10 within 2 months ([2]; listed as Samples 2): 66.3%

SMILES: COc1c(O)c(C)c(C/C=C(\C)CC/C=C(\C)CC/C=C(\C)CC/C=C(\C)CC/C=C(\C)CC/C=C(\C)CC/C=C(\C)CC/C=C(\C)CC/C=C(\C)CCC=C(C)C)c(O)c1OC [Sample 3, reduced coenzyme Q10]
- bioavailability ([1]; both sexes, dog, blood, po, 20 mg/kg, F=(AUC0-t, Sample 2 or 3/AUC0-t, Sample 1)×100%): 74.7%
- AUC(0-inf) [1, 3]: 2660 ng·h/mL
- half-life [1, 3]: 4.76 h
- AUC0-t ([1]; both sexes, dog, blood, po, 20 mg/kg, suspension in soybean oil, read-out: AUC0-t): 2760 ng·h/mL
- Cmax ([1]; both sexes, dog, blood, po, 20 mg/kg, suspension in soybean oil, read-out: Cmax): 287 ng/mL
- MRT ([1]; both sexes, dog, blood, po, 20 mg/kg, suspension in soybean oil, read-out: MRT): 8.35 h
- Tmax ([1]; both sexes, dog, blood, po, 20 mg/kg, suspension in soybean oil, read-out: Tmax): 6.3 h
- The retention rate of reduced coenzyme Q10 within 1 month [2]: 89.3%
- The retention rate of reduced coenzyme Q10 within 2 months [2]: 85.4%
